Data reported in the OPERA property sets (Mansouri et al. 2018).

Conditions: for log10 BCF / log10 biotransformation half-life (days): fish

Structure (SMILES)	melting point [°C]	boiling point [°C]	other results
COc1nn(CSP(=S)(OC)OC)c(=O)s1	39		log10 Koc (L/kg): 1.53; log10 vapour pressure (mmHg): -5.47; log10 BCF: 0.74; log10 biotransformation half-life (days): -1.15
Nc1ccc2[nH]ccc2c1	132		
CCCCCCCCCCCCCCCc1cccc(O)c1O	59.5		
Clc1ccc(-c2c(Cl)cc(Cl)c(Cl)c2Cl)c(Cl)c1	73		
Clc1ccc(Oc2cc(Cl)c(Cl)cc2Cl)cc1			log10 biotransformation half-life (days): 1.93
CCOC(OCC)c1ccco1		192	
CCCCCCCCCCI	-16.3		log10 vapour pressure (mmHg): -1.85
O=[N+]([O-])c1ccc(O)cc1	114	279	log10 Henry constant (atm·m³/mol): -9.38; log10 Koc (L/kg): 2.37; log10 vapour pressure (mmHg): -4.01; ready biodegradability: not readily biodegradable; log10 BCF: 0.71
O=C1c2ccc(O)cc2OC(c2ccc(O)c(O)c2)C1O (stereo not drawn)	227		
N#C[S-].[NH4+]	150		
FC(F)(F)c1nc2c(Cl)c(Cl)ccc2[nH]1	214		
CCC(C)c1cc([N+](=O)[O-])cc([N+](=O)[O-])c1OC(=O)OC(C)C (stereo not drawn)	61		
Cc1cn(C)c2ccccc12	142	258	
COc1ccc(-c2cc(=O)c3c(O)c(OC)c(O)cc3o2)cc1	221		
CCCCCCOCC		143	
Nc1c([N+](=O)[O-])ccc(Oc2ccccc2)c1Cl	81.5		log10 vapour pressure (mmHg): -6.92
Clc1cc(Cl)c2oc3c(Cl)c(Cl)c(Cl)cc3c2c1	219		log10 vapour pressure (mmHg): -8.73
O=C(O)c1cccnc1C(=O)O	228		ready biodegradability: readily biodegradable
C1CC12CC2	-135	39	log10 vapour pressure (mmHg): 2.66
Cc1ccc(CO)cc1	61.5	217	
CCCCN(CCCC)CCCC	-70	216	log10 vapour pressure (mmHg): -1.03; ready biodegradability: not readily biodegradable; log10 BCF: 1.4
C#CC(C)(C)NC(=O)c1ccc(OC)cc1			log10 Koc (L/kg): 1.83
CCCC(CCC)C(=O)O		222	ready biodegradability: readily biodegradable
CC#CCCCC		112	

Structure (SMILES)	melting point [°C]	boiling point [°C]	other results
CNC(=O)Nc1ccc(C)c(Cl)c1			log10 Koc (L/kg): 2.1
CC(=O)CC(C)C(C)=O (stereo not drawn)		196	
OC(C(F)(F)F)C(F)(F)F	-4	59	log10 Henry constant (atm·m³/mol): -4.37; log10 vapour pressure (mmHg): 2.2; ready biodegradability: not readily biodegradable; log10 BCF: 0.4; log10 biotransformation half-life (days): -1.32
C=C(C)CCC=C(C)C	-70	143	
O=C(C(Br)Br)C(Br)(Br)Br	79.5		
CCSc1ccc2c(c1)N(CCCN1CCN(C)CC1)c1ccccc1S2	63		
Cc1ccc([C@H](C)O)cc1		219	
Clc1ccc2c(c1)C(N1CCNCC1)=Nc1ccccc1O2	176		
O=C(c1ccccc1)C1CCC1		260	
CC(C)(C#N)C(C)(C)C#N	170		
NNc1ccccn1	46.6		
CC1=CCC2C(=O)OC(=O)C2C1 (stereo not drawn)			ready biodegradability: not readily biodegradable
CCCCCCCCCCCCCCCCCCBr	28.2		log10 vapour pressure (mmHg): -5.23
CCC(CC)(CC)CC	-33.1	146	log10 vapour pressure (mmHg): 0.863
N#Cc1ncnc2nc[nH]c12	188		
O=C(O)c1cccc(C(=O)O)c1O	244		
CS(=O)(=O)c1ccc([C@@H](O)[C@@H](CO)NC(=O)C(Cl)Cl)cc1	165		
c1cn[nH]c1	68	187	
CS(=O)(=O)OCCCNCCCOS(C)(=O)=O	116		
O=C(O)C1CC1	18.5	183	log10 vapour pressure (mmHg): -0.62
CCCCCCCCCCCCS(=O)(=O)O			ready biodegradability: readily biodegradable
CCOC(=O)c1c[nH]c(=S)[nH]c1=O	252		
CC(=O)CCC(=O)OCC(C)C		228	
COC(=O)c1ccc(O)cc1O	120		

Structure (SMILES)	melting point [°C]	boiling point [°C]	other results
Clc1cc(Cl)c(-c2c(Cl)ccc(Cl)c2Cl)cc1Cl			log10 Koa: 9.27; log10 Koc (L/kg): 5.79; log10 vapour pressure (mmHg): -5.07
Clc1ccc2c(c1)oc1c(Cl)c(Cl)cc(Cl)c12	190		
CCCN.Cl	161		
FCCCF		41.6	
CCCCn1c(=O)c2c(ncn2C)n(C)c1=O	108		
NS(=O)(=O)c1ccc(SCCCO)c([N+](=O)[O-])c1	163		
O=C(O)Cc1ccc2ccccc2c1	142		
CCOc1ccccc1OCC	44	219	
CCOCc1ccccc1		186	log10 vapour pressure (mmHg): -0.0339
CC(=O)OC(C)OC(C)=O	18.9	169	
CCCCCCCC(=O)N(CCO)CCO			ready biodegradability: readily biodegradable
FC(F)C(F)(F)CBr		74	
c1ccc(C2CCCCC2)cc1	7.3	240	log10 vapour pressure (mmHg): -1.4
O=[N+]([O-])c1cccc([N+](=O)[O-])c1Cl	88	315	
Cc1ccc(C)c2occc12		216	
CCOC(=O)CCCCCCCC(=O)OCC	-18.5	292	
CCCCOC(=O)CC(CC(=O)OCCCC)(OC(C)=O)C(=O)OCCCC	-80		ready biodegradability: readily biodegradable
CC(C)SC(C)C	-78.1	120	log10 Henry constant (atm·m³/mol): -2.48; log10 vapour pressure (mmHg): 1.28
CC(C)(C)Cc1ccccc1		186	
CN(C)C(=O)Nc1ccc(Cl)cc1	170		log10 Koc (L/kg): 1.95; log10 vapour pressure (mmHg): -6.3
C#CCC	-126	8	log10 vapour pressure (mmHg): 3.15
CCOS(=O)(=O)c1ccc(C)cc1	34.5		
CCN(CC)CCOC(=O)C(c1ccccc1)c1ccccc1	114		
CCCCCCCCCCCCCCCCCC(=O)NCO			ready biodegradability: readily biodegradable

Structure (SMILES)	melting point [°C]	boiling point [°C]	other results
Fc1ccncc1		109	
CN(C)C(=S)SSC(=S)N(C)C	156		log10 Koc (L/kg): 2.83; log10 vapour pressure (mmHg): -4.76; ready biodegradability: readily biodegradable; log10 BCF: 0.53; log10 biotransformation half-life (days): -1.18
O=C(O)c1cc(-c2ccccc2)nc2ccccc12	214		
C=CCCCO		141	
CC(N)=S	116		log10 Koc (L/kg): 0.78; ready biodegradability: not readily biodegradable
CC(C)c1ccc(N)cc1		225	log10 vapour pressure (mmHg): -1.08; ready biodegradability: not readily biodegradable
O=[N+]([O-])c1ccccc1Sc1ccccc1	82		
C=C[C@H]1CNCC[C@H]1CCC(=O)c1ccnc2ccc(OC)cc12	60		
CC1=CCCC(C)(C)C1CO (stereo not drawn)		215	
CCSCC(C)C		134	
CCCCCCc1ccc2c(c1)CCC2	-34	292	
CCCCOC(=O)CCCCCCCCC(=O)OCCCC	-10	344	log10 vapour pressure (mmHg): -5.33
O=C(O)c1ccc(NC(=O)[C@H](Cc2ccc(O)cc2)NC(=O)c2ccccc2)cc1	241		
O=S(=O)(O)C(F)(F)C(F)(F)C(F)(F)C(F)(F)F		211	
N#Cc1cnc2ccccc2c1	109		
CNOC			log10 vapour pressure (mmHg): 2.58
CCC(C)(Cl)CC		116	
CN(C)C(=O)NC1CCCCCCC1	138		
CC(C)(N)C(=O)O	335		
Nc1ccc(S(=O)c2ccc(N)cc2)cc1	175		
Nc1cc(C(=O)O)ccc1Cl	214		
